Reference: US10479786B2, “Protein kinase inhibitors” (Princeton Drug Discovery Inc, priority 2016, dated 2019)

Key:
ABL = molecular target: T1, ABL (Homo sapiens, UniProt P00519); experiment: Off-chip Mobility Shift Assay, kinase inhibition; type: biochemical; details: recombinant ABL; for inhibition at 0.001 µM: at 1 nM; for inhibition at 0.01 µM: at 10 nM
T1 construct: purchased Carna Biosciences, Inc

FMS = molecular target: T2, FMS (Homo sapiens, UniProt P07333); experiment: Off-chip Mobility Shift Assay, kinase inhibition; type: biochemical; details: recombinant FMS; for inhibition at 0.001 µM: at 1 nM; for inhibition at 0.01 µM: at 10 nM
T2 construct: purchased Carna Biosciences, Inc

ACK = molecular target: T3, ACK (Homo sapiens, UniProt Q07912); experiment: Off-chip Mobility Shift Assay, kinase inhibition; type: biochemical; details: recombinant ACK; for inhibition at 0.01 µM: at 10 nM
T3 construct: purchased Carna Biosciences, Inc

EPHA1 = molecular target: T4, EPHA1 (Homo sapiens, UniProt P21709); experiment: Off-chip Mobility Shift Assay, kinase inhibition; type: biochemical; details: recombinant EPHA1; for inhibition at 0.001 µM: at 1 nM; for inhibition at 0.01 µM: at 10 nM
T4 construct: purchased Carna Biosciences, Inc
T4 sequence (P21709 26-976): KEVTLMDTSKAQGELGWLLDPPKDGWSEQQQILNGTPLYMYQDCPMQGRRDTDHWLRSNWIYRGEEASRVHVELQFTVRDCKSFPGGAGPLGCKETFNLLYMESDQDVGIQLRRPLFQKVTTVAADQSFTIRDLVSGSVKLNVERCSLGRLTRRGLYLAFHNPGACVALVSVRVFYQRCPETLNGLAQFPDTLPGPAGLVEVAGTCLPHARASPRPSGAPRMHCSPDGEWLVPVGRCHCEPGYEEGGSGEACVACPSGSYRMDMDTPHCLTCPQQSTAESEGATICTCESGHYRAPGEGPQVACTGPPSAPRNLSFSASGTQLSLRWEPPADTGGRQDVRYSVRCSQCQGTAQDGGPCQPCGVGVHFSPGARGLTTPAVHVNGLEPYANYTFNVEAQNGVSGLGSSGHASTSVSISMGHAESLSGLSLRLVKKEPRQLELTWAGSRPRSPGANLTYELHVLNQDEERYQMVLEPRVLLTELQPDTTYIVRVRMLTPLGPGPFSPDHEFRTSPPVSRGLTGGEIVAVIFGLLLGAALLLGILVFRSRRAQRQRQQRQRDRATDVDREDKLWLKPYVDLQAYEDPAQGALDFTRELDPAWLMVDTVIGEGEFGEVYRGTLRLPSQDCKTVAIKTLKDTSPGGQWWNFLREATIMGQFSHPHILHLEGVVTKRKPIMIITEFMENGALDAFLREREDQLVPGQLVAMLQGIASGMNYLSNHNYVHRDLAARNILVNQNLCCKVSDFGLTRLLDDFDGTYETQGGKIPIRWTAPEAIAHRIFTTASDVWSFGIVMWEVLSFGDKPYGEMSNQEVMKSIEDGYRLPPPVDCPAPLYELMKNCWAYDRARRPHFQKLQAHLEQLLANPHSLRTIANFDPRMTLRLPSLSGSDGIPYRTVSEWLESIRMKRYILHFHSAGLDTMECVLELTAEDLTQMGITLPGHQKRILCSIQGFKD

PDGFRα = molecular target: T5, PDGFRα (Homo sapiens, UniProt P16234); experiment: Off-chip Mobility Shift Assay, kinase inhibition; type: biochemical; details: recombinant PDGFRα; for inhibition at 0.001 µM: at 1 nM; for inhibition at 0.01 µM: at 10 nM, read-out: inhibition
T5 construct: purchased Carna Biosciences, Inc

SU-DHL-4 = experiment: Cell inhibition assay (PrestoBlue, 48 h); type: cell-based; details: Homo sapiens, SU-DHL-4, 48 h, SU-DHL-4 diffuse large B-cell lymphoma cells, read-out: IC50, inhibition of growth
FYN(isoform a) = molecular target: T6, FYN(isoform a) (Homo sapiens, UniProt P06241); experiment: Off-chip Mobility Shift Assay, kinase inhibition; type: biochemical; details: recombinant FYN(isoform a); for inhibition at 0.001 µM: at 1 nM; for inhibition at 0.01 µM: at 10 nM
T6 construct: purchased Carna Biosciences, Inc

ARG = molecular target: T7, ARG (Homo sapiens, UniProt P42684); experiment: Off-chip Mobility Shift Assay, kinase inhibition; type: biochemical; details: recombinant ARG; for inhibition at 0.01 µM: at 10 nM, read-out: inhibition
T7 construct: purchased Carna Biosciences, Inc

BMX = molecular target: T8, BMX (Homo sapiens, UniProt P51813); experiment: Off-chip Mobility Shift Assay, kinase inhibition; type: biochemical; details: recombinant BMX; for inhibition at 0.001 µM: at 1 nM; for inhibition at 0.01 µM: at 10 nM
T8 construct: purchased Carna Biosciences, Inc
T8 sequence (P51813 1-675): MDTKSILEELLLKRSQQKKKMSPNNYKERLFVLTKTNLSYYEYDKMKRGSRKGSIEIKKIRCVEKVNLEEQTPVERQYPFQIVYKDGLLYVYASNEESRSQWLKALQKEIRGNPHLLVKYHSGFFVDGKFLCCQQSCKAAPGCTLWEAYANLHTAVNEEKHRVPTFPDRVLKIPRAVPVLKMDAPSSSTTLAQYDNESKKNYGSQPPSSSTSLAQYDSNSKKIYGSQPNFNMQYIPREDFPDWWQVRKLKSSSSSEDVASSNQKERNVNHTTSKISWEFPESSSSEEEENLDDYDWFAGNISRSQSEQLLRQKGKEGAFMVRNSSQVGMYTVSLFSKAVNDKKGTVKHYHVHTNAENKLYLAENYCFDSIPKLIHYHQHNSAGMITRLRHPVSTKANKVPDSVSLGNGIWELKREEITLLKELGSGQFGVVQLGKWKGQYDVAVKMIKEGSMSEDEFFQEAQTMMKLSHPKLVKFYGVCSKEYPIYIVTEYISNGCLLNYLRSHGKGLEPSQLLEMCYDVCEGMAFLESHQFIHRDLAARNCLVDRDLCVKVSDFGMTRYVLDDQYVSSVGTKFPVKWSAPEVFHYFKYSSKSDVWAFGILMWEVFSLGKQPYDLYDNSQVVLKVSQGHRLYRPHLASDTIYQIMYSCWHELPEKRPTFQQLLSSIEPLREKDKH

LCK = molecular target: T9, LCK (Homo sapiens, UniProt P06239); experiment: Off-chip Mobility Shift Assay, kinase inhibition; type: biochemical; details: recombinant LCK; for inhibition at 0.001 µM: at 1 nM; for inhibition at 0.01 µM: at 10 nM
T9 construct: purchased Carna Biosciences, Inc

HCK = molecular target: T10, HCK (Homo sapiens, UniProt P08631); experiment: Off-chip Mobility Shift Assay, kinase inhibition; type: biochemical; details: recombinant HCK; for inhibition at 0.001 µM: at 1 nM; for inhibition at 0.01 µM: at 10 nM, read-out: inhibition
T10 construct: purchased Carna Biosciences, Inc

PIK3CA/PIK3R1 = molecular target: T11, PIK3CA/PIK3R1 (Homo sapiens, UniProt P42336); experiment: Off-chip Mobility Shift Assay, kinase inhibition; type: biochemical; details: recombinant PIK3CA/PIK3R1; for inhibition at 0.01 µM: at 10 nM
T11 construct: purchased Carna Biosciences, Inc

LYNa = molecular target: T12, LYNa (Homo sapiens, UniProt P07948); experiment: Off-chip Mobility Shift Assay, kinase inhibition; type: biochemical; details: recombinant LYNa; for inhibition at 0.001 µM: at 1 nM; for inhibition at 0.01 µM: at 10 nM, read-out: inhibition
T12 construct: purchased Carna Biosciences, Inc

BLK = molecular target: T13, BLK (Homo sapiens, UniProt P51451); experiment: Off-chip Mobility Shift Assay, kinase inhibition; type: biochemical; details: recombinant BLK; for inhibition at 0.001 µM: at 1 nM; for inhibition at 0.01 µM: at 10 nM
T13 construct: purchased Carna Biosciences, Inc

BTK = molecular target: T14, BTK (Homo sapiens, UniProt Q06187); experiment: Off-chip Mobility Shift Assay, kinase inhibition; type: biochemical; details: recombinant BTK; for inhibition at 0.001 µM: at 1 nM; for inhibition at 0.01 µM: at 10 nM
T14 construct: purchased Carna Biosciences, Inc

[1] = system: battery of selected protein kinases; experiment: In vitro screen of a battery of selected protein kinases (summary statement); type: biochemical; details: BTK, BMX, ABL, ABL(E255K), SRC, ACK, ARG, BLK, DDR2, EPHA, FGR, FMS, FRK, FYN, HCK, LCK, LYN, PDGFRα, PDGFRβ, YES, PIK3CA/PIK3R1, among others

T5 sequence (P16234 24-1089): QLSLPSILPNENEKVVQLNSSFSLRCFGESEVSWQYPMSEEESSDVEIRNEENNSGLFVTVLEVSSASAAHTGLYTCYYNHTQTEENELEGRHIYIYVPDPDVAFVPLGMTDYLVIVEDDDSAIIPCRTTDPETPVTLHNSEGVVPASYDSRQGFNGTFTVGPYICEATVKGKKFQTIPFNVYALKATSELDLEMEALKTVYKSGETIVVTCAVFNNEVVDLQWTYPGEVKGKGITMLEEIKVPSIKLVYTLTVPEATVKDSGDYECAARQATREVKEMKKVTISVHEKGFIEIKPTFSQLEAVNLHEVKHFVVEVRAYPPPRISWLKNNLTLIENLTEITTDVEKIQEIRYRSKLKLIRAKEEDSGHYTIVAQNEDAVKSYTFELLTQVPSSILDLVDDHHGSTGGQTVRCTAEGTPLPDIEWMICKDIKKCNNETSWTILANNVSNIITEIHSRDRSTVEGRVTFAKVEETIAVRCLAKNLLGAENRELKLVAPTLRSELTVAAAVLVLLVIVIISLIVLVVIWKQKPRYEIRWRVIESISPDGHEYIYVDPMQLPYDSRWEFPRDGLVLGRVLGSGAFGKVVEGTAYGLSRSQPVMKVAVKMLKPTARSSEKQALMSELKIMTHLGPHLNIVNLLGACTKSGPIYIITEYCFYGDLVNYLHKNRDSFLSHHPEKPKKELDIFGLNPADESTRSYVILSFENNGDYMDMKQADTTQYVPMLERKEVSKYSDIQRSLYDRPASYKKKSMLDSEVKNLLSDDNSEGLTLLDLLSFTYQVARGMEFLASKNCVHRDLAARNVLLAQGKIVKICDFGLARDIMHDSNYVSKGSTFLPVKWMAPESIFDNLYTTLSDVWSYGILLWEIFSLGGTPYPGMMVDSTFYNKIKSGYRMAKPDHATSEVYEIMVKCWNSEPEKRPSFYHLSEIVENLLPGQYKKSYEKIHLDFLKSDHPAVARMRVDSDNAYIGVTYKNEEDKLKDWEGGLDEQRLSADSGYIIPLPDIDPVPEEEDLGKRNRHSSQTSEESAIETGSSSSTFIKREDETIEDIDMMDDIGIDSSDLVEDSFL
T14 sequence (Q06187 whole entry): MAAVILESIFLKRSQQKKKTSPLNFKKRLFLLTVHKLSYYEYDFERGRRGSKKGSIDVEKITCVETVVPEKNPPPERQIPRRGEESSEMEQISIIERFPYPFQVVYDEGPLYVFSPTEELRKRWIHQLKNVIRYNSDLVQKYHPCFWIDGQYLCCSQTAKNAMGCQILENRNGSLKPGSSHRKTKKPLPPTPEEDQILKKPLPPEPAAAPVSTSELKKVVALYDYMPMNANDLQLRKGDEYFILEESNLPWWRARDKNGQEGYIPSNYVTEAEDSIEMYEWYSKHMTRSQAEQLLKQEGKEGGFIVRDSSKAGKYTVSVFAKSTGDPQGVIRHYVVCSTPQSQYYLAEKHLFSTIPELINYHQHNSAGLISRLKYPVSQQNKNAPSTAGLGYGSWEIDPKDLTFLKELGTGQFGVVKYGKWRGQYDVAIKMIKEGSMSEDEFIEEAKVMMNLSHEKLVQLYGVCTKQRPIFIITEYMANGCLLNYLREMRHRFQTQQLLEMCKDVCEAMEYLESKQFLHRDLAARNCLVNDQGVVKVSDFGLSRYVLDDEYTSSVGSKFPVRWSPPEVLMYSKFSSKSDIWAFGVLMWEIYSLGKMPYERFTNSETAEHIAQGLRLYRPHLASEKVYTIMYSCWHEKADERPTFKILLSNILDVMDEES
T7 sequence (P42684 whole entry): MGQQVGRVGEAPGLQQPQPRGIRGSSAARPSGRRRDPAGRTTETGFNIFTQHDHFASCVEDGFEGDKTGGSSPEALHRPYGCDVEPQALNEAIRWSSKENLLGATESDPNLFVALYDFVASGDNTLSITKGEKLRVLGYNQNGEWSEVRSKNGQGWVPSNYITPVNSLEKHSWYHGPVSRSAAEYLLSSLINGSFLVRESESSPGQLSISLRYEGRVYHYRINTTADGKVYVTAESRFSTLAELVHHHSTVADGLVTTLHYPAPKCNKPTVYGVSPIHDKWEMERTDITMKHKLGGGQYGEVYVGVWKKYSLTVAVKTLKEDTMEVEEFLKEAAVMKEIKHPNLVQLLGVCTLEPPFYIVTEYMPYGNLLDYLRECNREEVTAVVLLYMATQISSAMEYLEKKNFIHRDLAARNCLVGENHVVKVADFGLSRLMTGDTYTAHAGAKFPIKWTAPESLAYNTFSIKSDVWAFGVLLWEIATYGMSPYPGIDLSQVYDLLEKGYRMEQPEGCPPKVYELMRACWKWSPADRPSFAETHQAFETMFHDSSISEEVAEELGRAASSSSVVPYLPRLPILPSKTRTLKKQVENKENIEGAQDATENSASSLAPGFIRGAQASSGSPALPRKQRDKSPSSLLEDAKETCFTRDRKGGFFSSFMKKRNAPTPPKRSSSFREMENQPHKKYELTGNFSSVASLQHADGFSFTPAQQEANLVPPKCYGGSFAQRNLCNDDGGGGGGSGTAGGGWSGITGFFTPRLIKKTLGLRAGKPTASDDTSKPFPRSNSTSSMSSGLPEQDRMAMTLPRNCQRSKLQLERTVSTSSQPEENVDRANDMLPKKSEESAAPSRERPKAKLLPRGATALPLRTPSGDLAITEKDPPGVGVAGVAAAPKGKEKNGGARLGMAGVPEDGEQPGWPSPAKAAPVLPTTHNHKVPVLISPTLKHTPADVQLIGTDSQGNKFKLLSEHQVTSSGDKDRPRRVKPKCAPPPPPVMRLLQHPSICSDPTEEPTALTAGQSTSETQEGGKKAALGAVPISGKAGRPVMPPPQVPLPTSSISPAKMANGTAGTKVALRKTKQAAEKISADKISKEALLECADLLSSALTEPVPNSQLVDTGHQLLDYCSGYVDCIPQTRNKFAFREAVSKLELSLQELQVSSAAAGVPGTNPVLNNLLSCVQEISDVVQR
T2 sequence (P07333 20-972): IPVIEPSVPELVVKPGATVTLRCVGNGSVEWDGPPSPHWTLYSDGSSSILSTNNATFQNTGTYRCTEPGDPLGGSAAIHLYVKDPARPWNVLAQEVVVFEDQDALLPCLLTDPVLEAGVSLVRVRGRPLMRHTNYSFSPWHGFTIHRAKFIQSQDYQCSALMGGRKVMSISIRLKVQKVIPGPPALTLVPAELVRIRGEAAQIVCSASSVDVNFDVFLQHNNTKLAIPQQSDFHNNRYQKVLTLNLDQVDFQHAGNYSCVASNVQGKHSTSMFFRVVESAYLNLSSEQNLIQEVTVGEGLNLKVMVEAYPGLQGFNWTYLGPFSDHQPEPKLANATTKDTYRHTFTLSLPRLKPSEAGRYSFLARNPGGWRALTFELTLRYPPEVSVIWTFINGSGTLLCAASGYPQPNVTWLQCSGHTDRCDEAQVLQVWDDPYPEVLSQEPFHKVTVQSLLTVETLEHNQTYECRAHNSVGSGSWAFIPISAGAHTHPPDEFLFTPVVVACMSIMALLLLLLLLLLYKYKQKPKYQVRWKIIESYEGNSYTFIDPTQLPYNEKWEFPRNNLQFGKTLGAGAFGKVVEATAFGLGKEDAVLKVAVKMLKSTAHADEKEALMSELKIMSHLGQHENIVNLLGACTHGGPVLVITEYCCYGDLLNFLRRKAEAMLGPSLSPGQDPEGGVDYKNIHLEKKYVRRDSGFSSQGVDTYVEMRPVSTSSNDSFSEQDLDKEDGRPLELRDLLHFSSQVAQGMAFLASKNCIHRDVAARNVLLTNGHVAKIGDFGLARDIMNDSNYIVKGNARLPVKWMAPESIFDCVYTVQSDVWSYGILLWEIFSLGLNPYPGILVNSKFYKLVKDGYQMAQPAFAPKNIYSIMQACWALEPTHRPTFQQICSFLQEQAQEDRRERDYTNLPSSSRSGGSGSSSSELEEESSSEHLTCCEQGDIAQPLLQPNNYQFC
T6 sequence (P06241 whole entry, canonical isoform): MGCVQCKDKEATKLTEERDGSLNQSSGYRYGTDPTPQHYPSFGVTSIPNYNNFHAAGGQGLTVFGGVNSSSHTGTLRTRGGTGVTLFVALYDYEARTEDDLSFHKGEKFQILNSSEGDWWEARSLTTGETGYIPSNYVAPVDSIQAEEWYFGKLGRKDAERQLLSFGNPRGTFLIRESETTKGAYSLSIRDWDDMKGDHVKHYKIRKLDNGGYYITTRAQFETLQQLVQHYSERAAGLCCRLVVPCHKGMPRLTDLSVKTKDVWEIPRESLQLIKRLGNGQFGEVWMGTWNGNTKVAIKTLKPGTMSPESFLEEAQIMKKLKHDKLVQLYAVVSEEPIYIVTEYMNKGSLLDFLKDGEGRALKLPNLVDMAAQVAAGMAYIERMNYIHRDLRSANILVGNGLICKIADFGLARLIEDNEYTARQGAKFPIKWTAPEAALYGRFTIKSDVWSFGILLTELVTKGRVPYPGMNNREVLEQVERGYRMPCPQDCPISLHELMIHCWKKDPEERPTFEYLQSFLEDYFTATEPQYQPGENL
T9 sequence (P06239 whole entry): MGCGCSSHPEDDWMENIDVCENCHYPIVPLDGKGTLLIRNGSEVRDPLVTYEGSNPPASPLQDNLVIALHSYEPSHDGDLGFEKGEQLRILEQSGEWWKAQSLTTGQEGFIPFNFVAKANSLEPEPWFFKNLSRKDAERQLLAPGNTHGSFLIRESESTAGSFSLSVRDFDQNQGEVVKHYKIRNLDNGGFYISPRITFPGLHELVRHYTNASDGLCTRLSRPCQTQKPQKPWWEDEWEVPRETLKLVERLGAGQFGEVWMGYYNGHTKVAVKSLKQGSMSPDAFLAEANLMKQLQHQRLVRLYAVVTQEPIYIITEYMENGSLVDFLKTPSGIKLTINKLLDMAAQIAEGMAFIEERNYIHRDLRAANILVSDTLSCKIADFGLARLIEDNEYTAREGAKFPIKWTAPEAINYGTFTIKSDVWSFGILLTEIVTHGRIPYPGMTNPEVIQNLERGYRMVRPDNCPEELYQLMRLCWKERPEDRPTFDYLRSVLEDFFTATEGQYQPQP

inhibition at 0.001 µM (ABL) [%] | inhibition at 0.01 µM (ABL) [%] | inhibition at 0.01 µM (FMS) [%] | inhibition at 0.01 µM (ACK) [%] | inhibition at 0.01 µM (EPHA1) [%] | inhibition at 0.01 µM (PDGFRα) [%] | IC50 (SU-DHL-4) [nM] | inhibition at 0.01 µM (FYN(isoform a)) [%] | inhibition at 0.01 µM (ARG) [%] | inhibition at 0.001 µM (BMX) [%] | inhibition at 0.01 µM (BMX) [%] | inhibition at 0.001 µM (LCK) [%] | inhibition at 0.01 µM (LCK) [%] | inhibition at 0.001 µM (HCK) [%] | inhibition at 0.01 µM (HCK) [%] | inhibition at 0.01 µM (PIK3CA/PIK3R1) [%] | inhibition at 0.001 µM (LYNa) [%] | inhibition at 0.01 µM (LYNa) [%] | inhibition at 0.01 µM (BLK) [%] | inhibition at 0.001 µM (BTK) [%] | SMILES | other results
> 50 | > 50 | > 50 | > 50 | > 50 | > 50 | < 20 | > 50 | > 50 | > 50 | > 50 | > 50 | > 50 | > 50 | > 50 | > 50 | > 50 | > 50 | > 50 | > 50 | [2H]c1cc(C)c(NC(=O)c2cnc(Nc3cc(N4CCCCC4)nc(C)n3)s2)c(Cl)c1 [Compound I, N-(2-chloro-4-deuterio-6-methyl-phenyl)-2-[[2-methyl-6-(1-piperidyl)pyrimidin-4-yl]amino]thiazole-5-carboxamide] | inhibition at 0.001 µM (FMS): > 50%; inhibition at 0.001 µM (ACK; at 1 nM): > 50%; inhibition at 0.001 µM (EPHA1): > 50%; inhibition at 0.001 µM (PDGFRα): > 50%; inhibition at 0.001 µM (FYN(isoform a)): > 50%; inhibition at 0.001 µM (ARG; at 1 nM): > 50%; inhibition at 0.001 µM (BLK): > 50%; inhibition at 0.01 µM (BTK): > 50%; activity to inhibit kinases [1]: potent activity
> 50 | > 50 | > 50 | > 50 | > 50 | > 50 | < 20 | > 50 | > 50 | > 50 | > 50 | > 50 | > 50 | > 50 | > 50 | > 50 | > 50 | > 50 | > 50 | > 50 | Cc1nc(Nc2ncc(C(=O)Nc3c(C)cccc3Cl)s2)cc(N2CC[C@@H](N)C2)n1 [Compound XIII, N-(2-chloro-6-methylphenyl)-2-[[2-methyl-6-((R)-3-aminopyrrolidin-1-yl)pyrimidin-4-yl]amino]thiazole-5-carboxamide] | inhibition at 0.01 µM (BTK): > 50%; activity to inhibit kinases [1]: potent activity
> 50 | > 50 | > 50 | > 50 | > 50 | > 50 | < 20 | > 50 | > 50 | > 50 | > 50 | > 50 | > 50 | > 50 | > 50 | > 50 | > 50 | > 50 | > 50 | > 50 | [2H]c1cc(C)c(NC(=O)c2cnc(Nc3cc(N4CC[C@H](N)C4)nc(C)n3)s2)c(Cl)c1 [Compound VI, N-(2-chloro-4-dutero-6-methylphenyl)-2-[[2-methyl-6-((S)-3-aminopyrrolidin-1-yl)pyrimidin-4-yl]amino]thiazole-5-carboxamide] | inhibition at 0.01 µM (BTK): > 50%; activity to inhibit kinases [1]: potent activity
> 50 | > 50 | > 50 | > 50 | > 50 | > 50 | < 20 | > 50 | > 50 | > 50 | > 50 | > 50 | > 50 | > 50 | > 50 | > 50 | > 50 | > 50 | > 50 | > 50 | [2H]c1cc(C)c(NC(=O)c2cnc(Nc3cc(N4CCC(O)CC4)nc(C)n3)s2)c(Cl)c1 [Compound II, N-(2-chloro-4-deuterio-6-methyl-phenyl)-2-[[6-(4-hydroxy-1-piperidyl)-2-methyl-pyrimidin-4-yl]amino]thiazole-5-carboxamide] | inhibition at 0.001 µM (FMS): > 50%; inhibition at 0.001 µM (EPHA1): > 50%; inhibition at 0.001 µM (PDGFRα): < 50%; inhibition at 0.1 µM (PDGFRα; at 100 nM): > 50%; inhibition at 0.001 µM (FYN(isoform a)): > 50%; inhibition at 0.001 µM (PIK3CA/PIK3R1; at 1 nM): < 50%; inhibition at 0.1 µM (PIK3CA/PIK3R1; at 100 nM): < 50%; inhibition at 0.001 µM (BLK): > 50%; inhibition at 0.01 µM (BTK): > 50%; activity to inhibit kinases [1]: potent activity
